Usually inhibition stands for the percentage by which the read-out fell short of the control. A word on the IC50: it is the point on the concentration scale where inhibition reaches its midpoint.

Drawing on patent US7524844B2, “Dipeptidyl peptidase IV inhibitors, process for their preparation and compositions containing them” (Glenmark Pharmaceuticals S.A., priority 2004, dated 2009), this text covers inhibition and IC50 for eleven compounds.

The first assay deals with T1, human recombinant Dipeptidyl peptidase IV enzyme (DPP-IV) (Homo sapiens, UniProt P27487).
T1 construct: purchased R&D Systems Inc. of Minneapolis, Minn
T1 sequence (P27487 whole entry): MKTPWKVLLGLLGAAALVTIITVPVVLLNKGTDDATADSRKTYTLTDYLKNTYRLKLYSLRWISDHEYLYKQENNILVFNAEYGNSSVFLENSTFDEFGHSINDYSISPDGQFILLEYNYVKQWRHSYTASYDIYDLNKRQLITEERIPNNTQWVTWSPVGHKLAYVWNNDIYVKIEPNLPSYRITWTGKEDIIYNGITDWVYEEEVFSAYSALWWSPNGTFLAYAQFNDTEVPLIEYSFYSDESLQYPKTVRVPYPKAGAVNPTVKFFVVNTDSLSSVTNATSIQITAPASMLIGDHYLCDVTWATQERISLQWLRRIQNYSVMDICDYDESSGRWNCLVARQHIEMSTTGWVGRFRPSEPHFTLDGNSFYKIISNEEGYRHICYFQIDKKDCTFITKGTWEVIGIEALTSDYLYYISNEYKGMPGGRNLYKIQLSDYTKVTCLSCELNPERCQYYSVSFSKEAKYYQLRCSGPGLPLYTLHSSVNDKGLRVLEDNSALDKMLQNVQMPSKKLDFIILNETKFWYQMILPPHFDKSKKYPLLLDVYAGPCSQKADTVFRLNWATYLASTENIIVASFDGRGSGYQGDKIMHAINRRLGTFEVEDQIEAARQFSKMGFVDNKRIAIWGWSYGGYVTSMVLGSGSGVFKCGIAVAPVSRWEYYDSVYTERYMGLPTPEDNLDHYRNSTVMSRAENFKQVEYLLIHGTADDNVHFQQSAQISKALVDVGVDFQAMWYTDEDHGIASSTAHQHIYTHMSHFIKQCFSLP
Description: in-vitro DPP-IV assay (cleavage of AMC from Gly-Pro-AMC). The format is biochemical. The following applies: at 300 nM; printed in the IC50 (nM) column; read-out: DPP-IV inhibition using human recombinant DPP-IV enzyme, percent inhibition. The protocol:
DPP-IV activity was determined by the cleavage rate of 7-amino-4-methyl coumarin (AMC) from the synthetic substrate Glycyl-Prolyl-AMC. In brief, the assay was conducted by adding 10 ng of human recombinant Dipeptidyl peptidase IV enzyme (DPP-IV, available commercially from R&D Systems Inc. of Minneapolis, Minn.) in 50 μl of the assay buffer (25 mM Tris, pH 7.4, 140 mM NaCl, 10 mM KCl, 1% BSA) to 96 well black flat bottom microtiter plates. The reaction was initiated by adding 50 μl of 100 μM substrate Gly-Pro-AMC. The incubation was carried out in the kinetic mode at 30° C. for 30 minutes. Fluorescence was measured using Fluorostar with an excitation filter of 380 nm and emission filter of 460 nm. Test compounds and solvent controls were added as 1 μl additions. A standard curve of free amino methyl coumarin (AMC) was generated using 0-100 μM AMC in the assay buffer. The curve generated, which was linear was used for the interpolation of catalytic activity.
Test compounds dissolved in DMSO at 5-6 concentrations were tested in duplicate along with the solvent control and blank samples. Percent inhibition was calculated at each concentration with respect to the solvent control sample (no test compound added). […]
On to `N#C[C@@H]1CCCN1C(=O)CNC1CCC(C(=O)Nc2cc(F)c(F)cc2F)C1` (mixture of isomers) [Example 74, 1-((1SR,3RS)-3-{2-[(2S)-2-Cyanopyrrolidine-1-yl]-2-oxoethylamino}cyclopentyl-carboxamido)-2,4,5-trifluorobenzene], for which the inhibition at 0.3 µM amounted to 2%.

The assay is the same for the next values; noted with them: human recombinant DPP-IV, Gly-Pro-AMC substrate, 30° C., 30 minutes; read-out: DPP-IV inhibition using human recombinant DPP-IV enzyme, IC50.
On to `N#C[C@@H]1C[C@H](F)CN1C(=O)CN[C@H]1CC[C@@H](Cn2cncn2)C1` [Example-52, (2S,4S)-1-{2-[(1S,3R)-3-(1H-1,2,4-Triazol-1-ylmethyl)cyclopentylamino]acetyl}-4-fluoropyrrolidine-2-carbonitrile], for which the IC50 was 3.54 nM.

Regarding `N#C[C@@H]1C[C@H](F)CN1C(=O)CN[C@@H]1CC[C@H](Cn2cncn2)C1` [Example-42, (2S,4S)-1-{2-[(3S,1R)-3-(1H-1,2,4-Triazol-1-ylmethyl)cyclopentylamino]acetyl}-4-fluoropyrrolidine-2-carbonitrile], the IC50 is 1.61 nM.

Turning to `COc1ccccc1C[C@H]1CC[C@@H](NCC(=O)N2C[C@@H](F)C[C@H]2C#N)C1` [Example-16], the IC50 was 17.7 nM.

For the compound `N#CC[C@H]1CC[C@@H](NCC(=O)N2CCC[C@H]2C#N)C1` [Example-4, (2S)-1-{2-[(3S,1R)-3-Cyanomethylcyclopentylamino]acetyl}-2-pyrrolidinecarbo-nitrile], the IC50 stood at 22.2 nM.

Regarding `N#C[C@@H]1CCCN1C(=O)CNC1CCC(C(=O)NC23CC4CC(CC(C4)C2)C3)C1` (mixture of isomers) [Example 72, 1-((1SR,3RS)-3-{2-[(2S)-2-Cyanopyrrolidin-1-yl]-2-oxoethylamino}cyclopentyl-carboxamido)adamantine], the IC50 stood at 209 nM.

As for `N#C[C@@H]1CCCN1C(=O)CN[C@@H]1CC[C@H](Cn2nnc3ccccc32)C1` [Example-70, (2S)-1-{2-[(3S,1R)-3-(2H-Benzo[d][1,2,3]triazol-1-ylmethyl)cyclopentylamino]-acetyl}pyrrolidine-2-carbonitrile], the IC50 was 3.43 nM.

Turning to `N#C[C@@H]1CCCN1C(=O)CNC1CCC(CN2CCSC2)C1` (mixture of isomers) [Example-17], the IC50 was determined as 288 nM.

For the compound `N#C[C@@H]1C[C@H](F)CN1C(=O)CN[C@@H]1CC[C@H](Cn2cncn2)C1` [Example-49, (2S,4S)-1-{2-[(3S,1R)-3-(1H-1,2,4-Triazol-1-ylmethyl)cyclopentylamino]acetyl}-4-fluoropyrrolidine-2-carbonitrile salicylate], the IC50 is 3.22 nM.

With `N#CC[C@@H]1CC[C@H](NCC(=O)N2CCC[C@H]2C#N)C1` [Example-6, (2S)-1-{2-[(3R,1S)-3-Cyanomethylcyclopentylamino]acetyl}-2-pyrrolidinecarbo nitrile], the IC50 came to 21.8 nM.

`N#C[C@@H]1CCCN1C(=O)CN[C@@H]1CC[C@H](Cn2cnnn2)C1` [Example-59, (2S)-1-{2-[(3S,1R)-3-[1H-1 ,2,3,4-Tetrazol-1-ylmethyl]cyclopentylamino]acetyl}-pyrrolidine-2-carbonitrile]: the IC50 was 9.12 nM.
